How the values were obtained:
recombinant human HDAC6 = target: T1, recombinant human HDAC6 (Homo sapiens, UniProt Q9UBN7); test: Enzymatic screening on recombinant human HDAC6; format: biochemical; conditions: Table 2; read-out: HDAC6 IC50
T1 sequence (Q9UBN7 1-1215): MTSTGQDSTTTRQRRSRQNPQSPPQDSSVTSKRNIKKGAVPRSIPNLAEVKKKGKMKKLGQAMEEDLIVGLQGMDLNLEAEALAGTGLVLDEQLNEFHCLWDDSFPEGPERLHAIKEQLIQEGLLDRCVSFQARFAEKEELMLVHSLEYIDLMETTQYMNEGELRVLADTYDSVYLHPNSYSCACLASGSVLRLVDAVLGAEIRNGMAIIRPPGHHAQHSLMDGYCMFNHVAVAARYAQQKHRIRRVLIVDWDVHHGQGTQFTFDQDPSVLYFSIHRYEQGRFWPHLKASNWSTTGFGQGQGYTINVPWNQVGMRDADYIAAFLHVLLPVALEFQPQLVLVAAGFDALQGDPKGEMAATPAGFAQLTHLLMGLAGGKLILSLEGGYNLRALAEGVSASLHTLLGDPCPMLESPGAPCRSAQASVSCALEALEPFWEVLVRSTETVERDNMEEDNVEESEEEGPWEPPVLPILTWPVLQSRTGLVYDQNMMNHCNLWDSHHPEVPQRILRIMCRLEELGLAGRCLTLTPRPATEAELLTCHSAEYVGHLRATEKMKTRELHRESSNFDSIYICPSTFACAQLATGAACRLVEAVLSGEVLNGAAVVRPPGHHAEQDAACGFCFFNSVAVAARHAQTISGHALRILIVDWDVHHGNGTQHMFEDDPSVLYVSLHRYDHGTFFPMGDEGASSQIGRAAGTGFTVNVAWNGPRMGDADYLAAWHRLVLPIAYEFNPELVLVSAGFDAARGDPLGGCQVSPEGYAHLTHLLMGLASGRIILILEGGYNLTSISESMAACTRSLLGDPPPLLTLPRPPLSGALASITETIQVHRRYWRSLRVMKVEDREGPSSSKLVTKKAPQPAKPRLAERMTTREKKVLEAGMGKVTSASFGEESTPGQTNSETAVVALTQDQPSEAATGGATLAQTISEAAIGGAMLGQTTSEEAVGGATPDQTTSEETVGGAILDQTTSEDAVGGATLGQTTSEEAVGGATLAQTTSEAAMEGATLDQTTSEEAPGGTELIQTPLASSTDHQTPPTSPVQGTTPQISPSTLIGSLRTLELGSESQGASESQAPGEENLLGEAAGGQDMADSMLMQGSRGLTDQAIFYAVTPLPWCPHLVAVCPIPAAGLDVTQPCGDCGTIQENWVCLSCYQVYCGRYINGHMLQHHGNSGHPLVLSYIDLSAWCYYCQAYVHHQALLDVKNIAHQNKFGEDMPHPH
In short: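 Buffer for substrate addition: 25 mM Tris-HCl pH 8, 130 mM NaCl, 0.05% Tween-20, 10% glycerol, substrate 2× concentrated (FdL, FdL-Green or trifluoroacetyl-lysine). Recombinant human HDAC was preincubated with compound at 30 °C beforehand, timing isoform-dependent, and the reaction was likewise run at 30 °C.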

[1] = test system: B 697 promyelocytic cell line; test: Cytotoxicity on 697 cell line (CellTiter 96); format: cell-based; conditions: 72 hours incubation, read-out: 697 TOXICITY
In short: (§1)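 Mitochondrial-function readout (CellTiter 96 Aqueous One) after 72 h compound exposure, begun 24 h post-seeding. Dose ranges: 697 cells, 1 to 10000 nM at 2×10^4 cells/well; PBMCs, 1.5 to 10000 nM at 5×10^5 cells/well.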

[2] = test system: peripheral blood mononuclear cells (PBMCs); test: Cytotoxicity on PBMCs (CellTiter 96); format: cell-based; conditions: PBMC, 72 h; read-out: PBMC TOXICITY (72 h)
In short: as §1

[3] = Stability to Phase I metabolism in rat S9 liver fraction; format: in vitro ADME; conditions: after 90 min, 37° C.
In short: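 Phase I stability in human and rat hepatic S9 at 37 °C, sampled up to 90 min. Samples were stopped with acidified acetonitrile on ice, then quantified by HPLC-UV or LC-MS/MS.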

[4] = Stability to Phase I metabolism in human S9 liver fraction; format: in vitro ADME
Protocol: Test compounds were incubated in rat and human liver S9 fraction at 37° C. up to 90 minutes in order to evaluate their stability to Phase I metabolism by hepatic enzymes. […] The reaction was stopped placing samples on ice bath and adding acidified acetonitrile. After centrifugation (10 minutes at 14000 rpm) an aliquot of the supernatant was diluted water, filtered with 0.45 μm regenerated cellulose syringe filters and injected in HPLC-UV or in LC-MS/MS. The percentages of the amount remaining at the various incubation times with respect to the initial amount were calculated. The intrinsic clearance was also calculated.

Stability in rat plasma = format: in vitro ADME; conditions: after 4 hours, 37° C.
In short: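 Compounds incubated at 37° C in rat or human plasma at 50 μM (UV/HPLC) or 1 or 2 μM (LC-MS/MS) for 0–4 h. Reaction stopped with acidified acetonitrile on ice; percent remaining versus initial amount and plasma half-life calculated.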

[5] = Stability in human plasma; format: in vitro ADME; conditions: after 4 hours, 37° C.
Protocol: In order to evaluate the stability to circulating enzymes, test compounds were incubated in human and rat plasma at 37° C. in a thermostated oscillating bath. Each test compound was incubated at μM (50 μM when the samples were analysed by UV/HPLC, 1 or 2 μM when the samples were analysed by LC-MS/MS) concentration for 0, 15, 30 min and 1, 2 and 4 hours. The reaction was stopped placing tubes on ice bath and adding acidified acetonitrile. After centrifugation for 10 minutes at 14000 rpm, an aliquot of the supernatant was diluted with water, filtered with 0.45 μm syringe filters and injected in HPLC-UV or in LC-MS/MS. The percentages of amount remaining at the various times of incubation with respect to initial amount were calculated. The half-life in plasma was also calculated.

SMILES: O=C(NO)c1ccc(Cc2noc(-c3ccccc3)n2)cc1 [compound 189, 4-[(5-phenyl-1,2,4-oxadiazol-3-yl)methyl]benzenecarbohydroxamic acid]
- IC50 (recombinant human HDAC6): 9 nM
- IC50 [1]: 291 nM
- IC50 [2]: 1050 nM
- residual percentage in rat S9 fraction [3]: 5%
- residual percentage in human S9 fraction ([4]; human, 90 min, pH 7.4): 72%
- residual percentage in rat plasma (Stability in rat plasma): 78%
- residual percentage in human plasma [5]: 100%

SMILES: O=C(NO)c1ccc(Cn2nnc(-c3ccccc3)n2)cc1 [comp. 214, 4-[(5-phenyltetrazol-2-yl)methyl]benzenecarbohydroxamic acid]
- IC50 (recombinant human HDAC6): 3 nM
- IC50 [1]: 409 nM
- residual percentage in rat S9 fraction [3]: 9%
- residual percentage in human S9 fraction ([4]; human, 90 min, pH 7.4): 73%
- residual percentage in rat plasma (Stability in rat plasma): 60%
- residual percentage in human plasma [5]: 92%

SMILES: O=C(NO)c1ccc(Cc2nnc(-c3ccccc3)s2)cc1 [compound 190, 4-[(5-phenyl-1,3,4-thiadiazol-2-yl)methyl]benzenecarbohydroxamic acid]
- IC50 (recombinant human HDAC6): 3 nM
- IC50 [1]: 333 nM
- IC50 [2]: 983 nM
- residual percentage in rat S9 fraction [3]: 9%
- residual percentage in human S9 fraction ([4]; human, 90 min, pH 7.4): 64%
- residual percentage in rat plasma (Stability in rat plasma): 73%
- residual percentage in human plasma [5]: 99%

SMILES: CCN(CC)Cc1cc(-c2nnc(Sc3c(F)cc(C(=O)NO)cc3F)n2C)c(C)o1 [comp. 213, 4-[[5-[5-(diethylaminomethyl)-2-methyl-3-furyl]-4-methyl-1,2,4-triazol-3-yl]sulfanyl]-3,5-difluoro-benzenecarbohydroxamic acid]
- IC50 (recombinant human HDAC6): 13 nM
- IC50 [1]: 15400 nM
- residual percentage in rat S9 fraction [3]: 58%
- residual percentage in human S9 fraction ([4]; human, 90 min, pH 7.4): 63%
- residual percentage in rat plasma (Stability in rat plasma): 80%
- residual percentage in human plasma [5]: 97%

SMILES: CCc1oc(-c2nnc(Sc3c(F)cc(C(=O)NO)cc3F)n2C)cc1CN1CCCC1 [comp. 208, 4-[[5-[5-ethyl-4-(pyrrolidin-1-ylmethyl)-2-furyl]-4-methyl-1,2,4-triazol-3-yl]sulfanyl]-3,5-difluoro-benzenecarbohydroxamic acid]
- IC50 (recombinant human HDAC6): 4 nM
- IC50 [1]: 15400 nM
- residual percentage in rat S9 fraction [3]: 81%
- residual percentage in human S9 fraction ([4]; human, 90 min, pH 7.4): 81%
- residual percentage in rat plasma (Stability in rat plasma): 81%
- residual percentage in human plasma [5]: 87%

SMILES: Cn1c(Sc2c(F)cc(C(=O)NO)cc2F)nnc1-c1ccc(CN2CCOCC2)o1 [comp. 204, 3,5-difluoro-4-[[4-methyl-5-[5-(morpholinomethyl)-2-furyl]-1,2,4-triazol-3-yl]sulfanyl]benzenecarbohydroxamic acid]
- IC50 (recombinant human HDAC6): 7 nM
- IC50 [1]: 15400 nM
- residual percentage in rat S9 fraction [3]: 72%
- residual percentage in human S9 fraction ([4]; human, 90 min, pH 7.4): 84%
- residual percentage in rat plasma (Stability in rat plasma): 89%
- residual percentage in human plasma [5]: 79%

SMILES: O=C(NO)c1ccc(Cn2nnnc2-c2ccccc2)cc1 [comp. 215, 4-[(5-phenyltetrazol-1-yl)methyl]benzenecarbohydroxamic acid]
- IC50 [1]: 340 nM
- residual percentage in rat S9 fraction [3]: 65%
- residual percentage in human S9 fraction ([4]; human, 90 min, pH 7.4): 82%
- residual percentage in rat plasma (Stability in rat plasma): 57%
- residual percentage in human plasma [5]: 90%

SMILES: CN1CCN(Cc2ccc(-c3nnc(Sc4c(F)cc(C(=O)NO)cc4F)n3C)o2)CC1 [comp. 205, 3,5-difluoro-4-[[4-methyl-5-[5-[(4-methylpiperazin-1-yl)methyl]-2-furyl]-1,2,4-triazol-3-yl]sulfanyl]benzenecarbohydroxamic acid]
- IC50 (recombinant human HDAC6): 5 nM
- IC50 [1]: 15400 nM
- residual percentage in rat S9 fraction [3]: 71%
- residual percentage in human S9 fraction ([4]; human, 90 min, pH 7.4): 95%
- residual percentage in rat plasma (Stability in rat plasma): 89%
- residual percentage in human plasma [5]: 80%

SMILES: O=C(NO)c1cc(F)c(Cn2nnc(-c3ncccn3)n2)c(F)c1 [comp. 7]
- IC50 [1]: 4190 nM
- IC50 [2]: 10000 nM
- residual percentage in rat S9 fraction [3]: 96%
- residual percentage in human S9 fraction ([4]; human liver S9 fraction, after 90 min, 37° C.): 89%
- residual percentage in rat plasma (Stability in rat plasma): 77%
- residual percentage in human plasma [5]: 93%

SMILES: O=C(NO)c1ccc(Cc2nnc(-c3ccccc3)[nH]2)cc1 [comp. 216, 4-[(5-phenyl-4H-1,2,4-triazol-3-yl)methyl]benzenecarbohydroxamic acid]
- IC50 [1]: 288 nM
- residual percentage in rat S9 fraction [3]: 62%
- residual percentage in human S9 fraction ([4]; human, 90 min, pH 7.4): 84%
- residual percentage in rat plasma (Stability in rat plasma): 89%
- residual percentage in human plasma [5]: 91%

SMILES: CN1CCN(Cc2ccc(-c3nnc(Sc4ccc(C(=O)NO)cc4)n3C)o2)CC1 [comp. 209, 4-[[4-methyl-5-[5-[(4-methylpiperazin-1-yl)methyl]-2-furyl]-1,2,4-triazol-3-yl]sulfanyl]benzenecarbohydroxamic acid]
- IC50 (recombinant human HDAC6): 11 nM
- IC50 [1]: 15400 nM
- residual percentage in rat S9 fraction [3]: 84%
- residual percentage in human S9 fraction ([4]; human, 90 min, pH 7.4): 100%
- residual percentage in rat plasma (Stability in rat plasma): 69%
- residual percentage in human plasma [5]: 77%

SMILES: O=C(NO)c1ccc(Cc2noc(-c3ccnc(N4CCOCC4)c3)n2)cc1 [compound 193, 4-[[5-(2-morpholino-4-pyridyl)-1,2,4-oxadiazol-3-yl]methyl]benzenecarbohydroxamic acid]
- IC50 (recombinant human HDAC6): 6 nM
- residual percentage in rat S9 fraction [3]: 63%
- residual percentage in human S9 fraction ([4]; human, 90 min, pH 7.4): 71%
- residual percentage in rat plasma (Stability in rat plasma): 81%
- residual percentage in human plasma [5]: 100%

SMILES: Cn1c(Sc2c(F)cc(C(=O)NO)cc2F)nnc1-c1ccc(CN2CCCCC2)o1 [comp. 212, 3,5-difluoro-4-[[4-methyl-5-[5-(1-piperidylmethyl)-2-furyl]-1,2,4-triazol-3-yl]sulfanyl]benzenecarbohydroxamic acid]
- IC50 (recombinant human HDAC6): 6 nM
- IC50 [1]: 15400 nM
- residual percentage in rat S9 fraction [3]: 60%
- residual percentage in human S9 fraction ([4]; human, 90 min, pH 7.4): 75%
- residual percentage in rat plasma (Stability in rat plasma): 81%
- residual percentage in human plasma [5]: 83%

SMILES: CN(c1ccc(-c2nnc(Sc3c(F)cc(C(=O)NO)cc3F)s2)cc1)S(C)(=O)=O [compound 187, 3,5-difluoro-4-[[5-[4-[methyl(methylsulfonyl)amino]phenyl]-1,3,4-thiadiazol-2-yl]sulfanyl]benzenecarbohydroxamic acid]
- IC50 (recombinant human HDAC6): 55 nM
- residual percentage in rat S9 fraction [3]: 17%
- residual percentage in human S9 fraction ([4]; human, 90 min, pH 7.4): 54%
- residual percentage in rat plasma (Stability in rat plasma): 101%
- residual percentage in human plasma [5]: 92%
